Source: PMC9401007, “Advances towards Cell‐Specific Gene Transfection: A Small‐Molecule Approach Allows Order‐of‐Magnitude Selectivity” (Chemistry (Weinheim an Der Bergstrasse, Germany), 2022)

Assays:
[1] = test system: HeLa cells; test: MTS-based cell-viability assay (CellTiter 96 AQueous One Solution Cell Proliferation Assay); details: 5 h incubation with plasmid DNA 1 µg/ml
Protocol: (§1) The development of vector 1 is illustrated in Table 1. In order to assess structure–activity relationships (SAR), we analyzed the minimal concentration needed to achieve transfection in steps of 100 μM, the toxicological profile and the transfection efficiency. To get swift access to toxicity data for SAR analysis, the compounds listed in Table 1 were evaluated in an MTS‐based cell‐viability assay, and transfection efficiencies were analyzed by CellProfiler® on HeLa cells (see the Supporting Information for details).[18] […] Amide formation on the N terminus reduced the net charge by 1, and acetylation at this position led to an increased concentration needed for successful transfection (Table 1, Entry B). Finally, the descent in transfection efficiency to 5.9 % highlights the relevance of a fifth positive charge.[19] Apparently, this reduction of positive charges impedes DNA condensation and must be compensated for.
4. Biological experiments
Determination of the toxicity of the compounds was performed using the colorimetric CellTiter 96® AQueous One Solution Cell Proliferation Assay (Promega). […] Absorbance at 490 nm was measured using a GloMax-multi plate reader (Promega). […]

[2] = test system: HeLa cells; test: Transfection of pH2B-mCherry plasmid, microscopy with CellProfiler readout; format: cell-based
Protocol: as §1
4.2 Transfection and Microscopy
Cells were seeded in a 96-well plate from (Greiner bio-one) 24 h prior to experiments at a confluence of 1x104 in 100 µL of culture growth medium and grown at 37.0 °C, 5% CO2 atmosphere and 95% relative humidity. The vector was dissolved in DMSO. 0.100 µg of DNA were diluted with DB-PBS and an appropriate amount of vector solution added resulting in a total volume of 30 µL. This solution was incubated for 20 min at rt. Afterwards 30.0 µL of culture growth medium was replaced by vector/DNA mixture. All precipitate which had formed during the incubation process was added to the well. After 5 h of incubation the cells were washed with warm DB-PBS buffer (2x100 µL per well) before incubating the cells for 24h at 37.0 °C, 5% CO2 atmosphere and 95% relative humidity. After 24 h the cells were examined under the microscope.
Figure S4. Representative microscopy images of HEK293t, HeLa, CHO, A549 and HCT116 cells 24 h after transfection with 1 (150 µM) with pH2B-mCherry.
Scale bar represents 200 µm. […]
4.3 Quantification of Transfection Results
For quantification of transfection efficiencies, cells were transfected with the pH2B-mCherry plasmid using the different compounds at the described concentrations and stained with DAPI. […] The transfection efficiency was calculated using CellProfiler™.[7] […] Next, the fluorescence intensity in the red channel (Ex = 555 nm; Em > 590 nm) was measured within the segmented nuclei and a threshold was applied.
The ratio between pH2B-mCherry positive nuclei and all nuclei (segmented by DAPI) was determined as transfection efficiency. […]
Figure S7. […] The pipeline recognizes Hoechst-stained nuclei and measures the intensity of the fluorescent reporter protein within the previously calculated nuclei boundaries. […]

tetralysine-guanidinocarbonylpyrrol
Toxicity (qualitative, MTS assay) ([1]; concentration range optimal for transfection (for entry A: at the minimal concentration 150 μM), absorbance 490 nm, normalised to DMSO control): low (Low=cell viability ≥70 %) | Toxicity (qualitative, MTS assay) at the optimal concentration ([1]; entry A at 300 μM (opt.)): high (high=cell viability <70 %) | Conc.: minimal concentration needed to observe successful transfection during microscopy ([2]; analysed in steps of 100 μM, pH2B-mCherry plasmid, 5 h incubation, examined after 24 h): 150 µM | Efficiency: transfection efficiency by CellProfiler readout ([2]; at the (minimal) concentration printed in column Conc., fraction of pH2B-mCherry positive nuclei): 3.2% | Efficiency: transfection efficiency by CellProfiler readout at the optimal concentration ([2]; at the concentration marked (opt.): A 300 μM, 1 150 μM): 48% | Conc. (opt.): concentration of maximum transfection efficiency ([2]; pH2B-mCherry plasmid): 300 µM
